According to patent publication US10759766B2, “Certain chemical entities, compositions, and methods” (NeuPharma, Inc., priority 2011, dated 2020):

What was measured:
[1] = system: A549 cells; test: Inhibition of cancer cell growth, MTT assay, A549; format: cell-based; conditions: Homo sapiens, A549, 72 h exposure
In short: (§1)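 IC50 derived from percent growth inhibition versus concentration, tested in triplicate. Growth inhibition came from MTT read at 570 nm after 72 h drug exposure, relative to viable cells at dosing. Cells (about 4000/well, RPMI 1640 + 10% FBS) adhered 24 h before treatment; final DMSO 1%.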

[2] = molecular target: BRAF V600E (Homo sapiens (Human), UniProt P15056, V600E); test: Z′-LYTE kinase inhibition assay (Invitrogen), BRAF V600E; format: biochemical; conditions: 1 μM compound, Z′-LYTE method; read-out: % inhibition at 1 μM against BRAF V600E
In short: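 FRET-based Z′-LYTE peptide phosphorylation format in 50 mM HEPES pH 7.5, 0.01% BRIJ-35, 10 mM MgCl2, 1 mM EGTA with ATP. Kinase reaction 60 min at room temperature, then protease development step 60 min at room temperature before fluorescence read. IC50 from compound concentration versus percent inhibition.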

[3] = molecular target: KDR (VEGFR2) (Homo sapiens (Human), UniProt P35968); test: Z′-LYTE kinase inhibition assay (Invitrogen), KDR; format: biochemical; conditions: 1 μM compound, Z′-LYTE method; read-out: % inhibition at 1 μM against KDR
In short: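 Z′-LYTE FRET assay: 10 μL reactions with 0.5–11.7 ng KDR and 2 μM Tyr 01 peptide in 50 mM HEPES pH 7.5, 10 mM MgCl2, 1 mM EGTA, 0.01% BRIJ-35, 1 h at room temperature. Development Reagent B (1:256) added for 60 min, fluorescence read; IC50 from concentration–inhibition curves.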

[4] = system: A375 cells; test: Inhibition of cancer cell growth, MTT assay, A375; format: cell-based; conditions: Homo sapiens, A-375, 72 h exposure
In short: as §1

BRAF V600E, sequence (P15056 whole entry V600E): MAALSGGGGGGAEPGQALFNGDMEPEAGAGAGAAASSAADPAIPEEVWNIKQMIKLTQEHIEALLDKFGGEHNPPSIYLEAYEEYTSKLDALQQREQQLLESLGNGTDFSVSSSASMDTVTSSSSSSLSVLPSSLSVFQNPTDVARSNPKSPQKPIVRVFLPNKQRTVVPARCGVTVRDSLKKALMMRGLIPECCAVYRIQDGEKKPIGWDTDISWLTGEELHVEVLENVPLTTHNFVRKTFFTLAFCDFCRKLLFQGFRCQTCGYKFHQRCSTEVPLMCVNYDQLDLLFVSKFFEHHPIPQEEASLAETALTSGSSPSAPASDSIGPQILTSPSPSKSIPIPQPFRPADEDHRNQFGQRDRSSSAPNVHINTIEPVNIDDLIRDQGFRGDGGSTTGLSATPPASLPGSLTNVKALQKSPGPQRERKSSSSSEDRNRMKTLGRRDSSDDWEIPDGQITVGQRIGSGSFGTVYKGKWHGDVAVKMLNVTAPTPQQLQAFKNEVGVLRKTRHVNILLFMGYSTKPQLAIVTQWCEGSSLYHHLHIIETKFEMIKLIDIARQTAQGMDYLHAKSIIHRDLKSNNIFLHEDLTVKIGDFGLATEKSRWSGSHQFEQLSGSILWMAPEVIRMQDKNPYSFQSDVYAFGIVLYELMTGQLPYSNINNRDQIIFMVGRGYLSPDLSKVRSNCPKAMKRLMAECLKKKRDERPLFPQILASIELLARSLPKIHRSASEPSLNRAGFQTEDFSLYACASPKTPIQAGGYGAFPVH
KDR (VEGFR2), sequence (P35968 20-1356): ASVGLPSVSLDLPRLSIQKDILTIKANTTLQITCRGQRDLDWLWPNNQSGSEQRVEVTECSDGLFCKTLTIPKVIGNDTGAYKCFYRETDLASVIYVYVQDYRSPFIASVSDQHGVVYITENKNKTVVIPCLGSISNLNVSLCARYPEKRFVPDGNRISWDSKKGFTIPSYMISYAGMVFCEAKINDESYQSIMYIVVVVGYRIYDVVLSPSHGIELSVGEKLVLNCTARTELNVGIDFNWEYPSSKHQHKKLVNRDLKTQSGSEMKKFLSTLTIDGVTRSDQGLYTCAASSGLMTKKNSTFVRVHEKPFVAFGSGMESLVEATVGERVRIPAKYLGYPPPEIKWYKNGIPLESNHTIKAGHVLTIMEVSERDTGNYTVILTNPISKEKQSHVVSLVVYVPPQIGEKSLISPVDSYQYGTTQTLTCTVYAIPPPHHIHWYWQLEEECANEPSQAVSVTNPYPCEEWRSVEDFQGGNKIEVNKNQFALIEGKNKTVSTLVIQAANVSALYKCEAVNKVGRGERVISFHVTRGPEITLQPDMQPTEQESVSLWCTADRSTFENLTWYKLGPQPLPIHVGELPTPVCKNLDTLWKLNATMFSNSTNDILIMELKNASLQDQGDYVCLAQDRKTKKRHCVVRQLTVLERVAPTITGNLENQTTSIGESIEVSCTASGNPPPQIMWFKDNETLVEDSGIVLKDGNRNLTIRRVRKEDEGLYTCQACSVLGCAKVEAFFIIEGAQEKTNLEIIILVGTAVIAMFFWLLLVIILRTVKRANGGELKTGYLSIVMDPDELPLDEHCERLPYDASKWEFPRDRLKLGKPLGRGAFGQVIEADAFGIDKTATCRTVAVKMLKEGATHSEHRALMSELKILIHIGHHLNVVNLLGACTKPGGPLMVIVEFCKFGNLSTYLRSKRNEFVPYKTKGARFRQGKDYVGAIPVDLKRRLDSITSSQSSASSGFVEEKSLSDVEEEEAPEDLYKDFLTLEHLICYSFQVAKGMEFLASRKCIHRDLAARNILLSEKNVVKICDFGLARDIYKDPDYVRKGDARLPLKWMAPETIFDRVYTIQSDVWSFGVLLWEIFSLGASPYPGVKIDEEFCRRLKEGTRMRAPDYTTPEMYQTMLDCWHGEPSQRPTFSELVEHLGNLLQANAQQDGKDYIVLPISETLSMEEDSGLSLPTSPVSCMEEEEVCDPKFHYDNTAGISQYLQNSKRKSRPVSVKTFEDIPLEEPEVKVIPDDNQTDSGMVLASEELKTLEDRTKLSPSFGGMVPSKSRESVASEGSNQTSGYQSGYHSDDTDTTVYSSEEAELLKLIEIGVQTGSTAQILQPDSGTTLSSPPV

SMILES | IC50 [1] | inhibition at 1 µM [2] | inhibition at 1 µM [3] | IC50 [4]
O=C(Nc1cccc(Cl)c1)Nc1ccc(F)c(C(=O)c2ccc3ncc(N4CCOCC4)nc3c2)c1 [Compound C056, 1-(3-chlorophenyl)-3-(4-fluoro-3-(3-morpholinoquinoxaline-6-carbonyl)phenyl)urea] | 2 to 5 µM | > 89% | > 89% | < 1 µM
O=C(Nc1ccc(Cl)cc1)Nc1cc(F)cc(C(=O)c2ccc3nccnc3c2)c1 [Compound C063, 1-(4-chlorophenyl)-3-(3-fluoro-5-(quinoxaline-6-carbonyl)phenyl)urea] | > 5 µM | > 89% | < 70% | 1 to 5 µM
O=C(Nc1cc(F)cc(C(=O)c2ccc3ncc(N4CCOCC4)nc3c2)c1)Nc1ccc(F)c(F)c1 [Compound C049, 1-(3,4-difluorophenyl)-3-(3-fluoro-5-(3-morphlinoquinoxaline-6-carbonyl)phenyl)urea] | 2 to 5 µM | > 89% | < 70% | 1 to 5 µM
O=C(Nc1ccc(Cl)cc1)Nc1ccc(F)c(C(=O)c2ccc3ncc(N4CCOCC4)nc3c2)c1 [Compound C054, 1-(4-chlorophenyl)-3-(4-fluoro-3-(3-morpholinoquinoxaline-6-carbonyl)phenyl)urea] | < 2 µM | > 89% | > 89% | < 1 µM
O=C(Nc1cccc(C(F)(F)F)c1)Nc1cc(F)c(F)c(C(=O)c2ccc3ncc(N4CCOCC4)nc3c2)c1F [Compound C034, 1-(2,4,5-trifluoro-3-(3-morpholinoquinoxaline-6-carbonyl)phenyl)-3-(3-(trifluoromethyl)phenyl)urea] | 2 to 5 µM | < 70% | < 70% | 1 to 5 µM
O=C(Nc1cc(F)cc(C(=O)c2ccc3nccnc3c2)c1)Nc1ccc(F)c(Cl)c1 [Compound C067, 1-(3-chloro-4-fluorophenyl)-3-(3-fluoro-5-(quinoxaline-6-carbonyl)phenyl)urea] | 2 to 5 µM | > 89% | < 70% | 1 to 5 µM
O=C(Nc1ccc(Cl)cc1)Nc1cc(F)cc(C(=O)c2ccc3ncc(N4CCOCC4)nc3c2)c1 [Compound C045, 1-(4-chlorophenyl)-3-(3-fluoro-5-(3-morpholinoquinoxaline-6-carbonyl)phenyl)urea] | 2 to 5 µM | > 89% | < 70% | < 1 µM
O=C(Nc1cccc(Cl)c1)Nc1cc(F)cc(C(=O)c2ccc3nccnc3c2)c1 [Compound C068, 1-(3-chlorophenyl)-3-(3-fluoro-5-(quinoxaline-6-carbonyl)phenyl)urea] | > 5 µM | > 89% | < 70% | > 5 µM
O=C(Nc1ccc(Cl)c(C(F)(F)F)c1)Nc1cc(F)c(F)c(C(=O)c2ccc3ncc(N4CCOCC4)nc3c2)c1F [Compound C032, 1-(4-chloro-3-(trifluoromethyl)phenyl)-3-(2,4,5-trifluoro-3-(3-morpholinoquinoxaline-6-carbonyl)phenyl)urea] | 2 to 5 µM | < 70% | < 70% | 1 to 5 µM
O=C(Nc1ccc(C(F)(F)F)cc1)Nc1ccc(F)c(C(=O)c2ccc3ncc(N4CCOCC4)nc3c2)c1 [Compound C057, 1-(4-fluoro-3-(3-morpholinoquinoxaline-6-carbonyl)phenyl)-3-(4-(trifluoromethyl)phenyl)urea] | < 2 µM | > 89% | > 89% | < 1 µM
O=C(Nc1ccc(F)cc1)Nc1cc(F)cc(C(=O)c2ccc3nccnc3c2)c1 [Compound C064, 1-(3-fluoro-5-(quinoxaline-6-carbonyl)phenyl)-3-(4-fluorophenyl)urea] | > 5 µM | > 89% | < 70% | > 5 µM
O=C(Nc1cc(F)cc(C(=O)c2ccc3ncc(N4CCOCC4)nc3c2)c1)Nc1ccc(F)c(Cl)c1 [Compound C044, 1-(3-chloro-4-fluorophenyl)-3-(3-fluoro-5-(3-morpholinoquinoxaline-6-carbonyl)phenyl)urea] | 2 to 5 µM | > 89% | 70 to 89% | 1 to 5 µM
O=C(Nc1ccc(F)cc1)Nc1cc(F)cc(C(=O)c2ccc3ncc(N4CCOCC4)nc3c2)c1 [Compound C043, 1-(3-fluoro-5-(3-morpholinoquinoxaline-6-carbonyl)phenyl)-3-(4-fluorophenyl)urea] | > 5 µM | > 89% | < 70% | > 5 µM
O=C(Nc1cc(F)cc(C(=O)c2ccc3nccnc3c2)c1)Nc1ccc(F)c(F)c1 [Compound C065, 1-(3,4-difluorophenyl)-3-(3-fluoro-5-(quinoxaline-6-carbonyl)phenyl)urea] | > 5 µM | > 89% | < 70% | > 5 µM
O=C(Nc1cccc(F)c1)Nc1ccc(F)c(C(=O)c2ccc3nccnc3c2)c1F [Compound C011, 1-(2,4-difluoro-3-(quinoxaline-6-carbonyl)phenyl)-3-(3-fluorophenyl)urea] | > 5 µM | 70 to 89% | < 70% | > 5 µM
O=C(Nc1cc(F)cc(C(=O)c2ccc3ncc(N4CCOCC4)nc3c2)c1)Nc1ccc(Cl)c(Cl)c1 [Compound C050, 1-(3,4-dichlorophenyl)-3-(3-fluoro-5-(3-morpholinoquinoxaline-6-carbonyl)phenyl)urea] | < 2 µM | > 89% | 70 to 89% | < 1 µM
O=C(Nc1cc(F)cc(C(=O)c2ccc3nccnc3c2)c1)Nc1ccc(Cl)c(F)c1 [Compound C061, 1-(4-chloro-3-fluorophenyl)-3-(3-fluoro-5-(quinoxaline-6-carbonyl)phenyl)urea] | 2 to 5 µM | > 89% | < 70% | > 5 µM

Further lines, results first:

IC50 [1] | inhibition at 1 µM [2] | inhibition at 1 µM [3] | IC50 [4] | SMILES
> 5 µM | > 89% | < 70% | 1 to 5 µM | O=C(Nc1ccc(Cl)cc1)Nc1ccc(F)c(C(=O)c2ccc3nccnc3c2)c1 [Compound C074, 1-(4-chlorophenyl)-3-(4-fluoro-3-(quinoxaline-6-carbonyl)phenyl)urea]
> 5 µM | > 89% | 70 to 89% | > 5 µM | O=C(Nc1ccc(F)c(C(=O)c2ccc3nccnc3c2)c1)c1cccc(F)c1 [Compound C115, 3-fluoro-N-(4-fluoro-3-(quinoxaline-6-carbonyl)phenyl)benzamide]
> 5 µM | > 89% | < 70% | 1 to 5 µM | O=C(Nc1ccc(Cl)c(F)c1)Nc1ccc(F)c(C(=O)c2ccc3nccnc3c2)c1 [Compound C077, 1-(4-chloro-3-fluorophenyl)-3-(4-fluoro-3-(quinoxaline-6-carbonyl)phenyl)urea]
> 5 µM | 70 to 89% | > 89% | 1 to 5 µM | O=C(Nc1cc(F)c(F)c(C(=O)c2ccc3ncc(N4CCOCC4)nc3c2)c1F)c1cccc(C(F)(F)F)c1 [Compound C138, N-(2,4,5-trifluoro-3-(3-morpholinoquinoxaline-6-carbonyl)phenyl)-3-(trifluoromethyl)benzamide]
> 5 µM | > 89% | > 89% | 1 to 5 µM | O=C(Nc1ccc(F)c(C(=O)c2ccc3ncc(N4CCOCC4)nc3c2)c1)c1cccc(F)c1 [Compound C136]
> 5 µM | > 89% | > 89% | 1 to 5 µM | O=C(Nc1ccc(F)cc1)Nc1ccc(F)c(C(=O)c2ccc3nccnc3c2)c1 [Compound C070, 1-(4-fluoro-3-(quinoxaline-6-carbonyl)phenyl)-3-(4-fluorophenyl)urea]
< 2 µM | > 89% | < 70% | > 5 µM | O=C(Nc1cc(F)cc(C(=O)c2ccc3nccnc3c2)c1)Nc1ccc(Cl)c(Cl)c1 [Compound C069, 1-(3,4-dichlorophenyl)-3-(3-fluoro-5-(quinoxaline-6-carbonyl)phenyl)urea]
> 5 µM | 70 to 89% | < 70% | > 5 µM | O=C(Nc1ccc(F)c(C(=O)c2ccc3nccnc3c2)c1F)c1cccc(F)c1 [Compound C113, N-(2,4-difluoro-3-(quinoxaline-6-carbonyl)phenyl)-3-fluorobenzamide]
> 5 µM | 70 to 89% | 70 to 89% | > 5 µM | O=C(Nc1cccc(C(=O)c2ccc3ncc(N4CCCC4)nc3c2)c1)c1ccc(Cl)c(C(F)(F)F)c1 [Compound C123, 4-chloro-N-(3-(3-(pyrrolidin-1-yl)quinoxaline-6-carbonyl)phenyl)-3-(trifluoromethyl)benzamide]
> 5 µM | > 89% | < 70% | 1 to 5 µM | O=C(Nc1ccc(F)c(F)c1)Nc1ccc(F)c(C(=O)c2ccc3nccnc3c2)c1 [Compound C071, 1-(3,4-difluorophenyl)-3-(4-fluoro-3-(quinoxaline-6-carbonyl)phenyl)urea]
